Assay results: patent publication US8461328B2, “Tricyclic heterocyclic compounds, compositions and methods of use thereof” (Genentech, Inc., priority 2010, dated 2013)

Assays:
Format in all cases: biochemical
TYK2 = target: T1, TYK2 (Homo sapiens, UniProt P29597); experiment: TYK2 inhibition (Table 4)
T1 construct: made in house; host or cells: SF9 insect cells (baculovirus)
T1 sequence (P29597 873-1187): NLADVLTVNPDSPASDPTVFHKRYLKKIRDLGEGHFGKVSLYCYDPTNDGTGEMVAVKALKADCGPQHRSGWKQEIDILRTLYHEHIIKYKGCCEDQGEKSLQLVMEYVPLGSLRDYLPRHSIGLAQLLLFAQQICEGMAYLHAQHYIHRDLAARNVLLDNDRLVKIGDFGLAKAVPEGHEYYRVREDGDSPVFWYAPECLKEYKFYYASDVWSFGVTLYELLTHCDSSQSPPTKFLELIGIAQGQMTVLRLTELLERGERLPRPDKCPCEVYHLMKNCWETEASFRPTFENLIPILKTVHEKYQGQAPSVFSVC

JAK1 = target: T2, JAK1 (Homo sapiens, UniProt P23458); experiment: JAK1 inhibition (Table 4); details: read-out: JAK1 Ki
T2 construct: made in house; host or cells: SF9 insect cells (baculovirus)
T2 sequence (P23458 852-1154): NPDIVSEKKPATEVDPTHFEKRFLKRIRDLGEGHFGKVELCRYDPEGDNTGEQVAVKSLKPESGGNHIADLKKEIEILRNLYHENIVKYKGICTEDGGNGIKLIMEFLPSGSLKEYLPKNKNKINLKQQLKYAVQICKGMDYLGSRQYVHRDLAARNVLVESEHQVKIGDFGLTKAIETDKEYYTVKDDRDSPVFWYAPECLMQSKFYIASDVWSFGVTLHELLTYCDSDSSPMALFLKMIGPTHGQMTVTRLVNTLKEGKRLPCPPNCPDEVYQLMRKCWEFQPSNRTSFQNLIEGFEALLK

JAK3 = target: T3, JAK3 (Homo sapiens, UniProt P52333); experiment: JAK3 inhibition (Table 4); details: read-out: JAK3 Ki
T3 construct: made in house; host or cells: SF9 insect cells (baculovirus)
T3 sequence (P52333 783-1124): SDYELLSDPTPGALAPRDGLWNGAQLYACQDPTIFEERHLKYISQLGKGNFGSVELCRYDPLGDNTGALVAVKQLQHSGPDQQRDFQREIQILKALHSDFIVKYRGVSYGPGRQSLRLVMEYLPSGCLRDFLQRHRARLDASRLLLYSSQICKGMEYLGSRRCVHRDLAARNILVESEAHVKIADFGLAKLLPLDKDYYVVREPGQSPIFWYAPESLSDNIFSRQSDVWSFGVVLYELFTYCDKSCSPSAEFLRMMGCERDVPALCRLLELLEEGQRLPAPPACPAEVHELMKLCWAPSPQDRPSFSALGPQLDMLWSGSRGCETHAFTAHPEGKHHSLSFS

JAK2 = target: T4, JAK2 (Homo sapiens, UniProt O60674); experiment: JAK2 inhibition (Table 4); details: read-out: JAK2 Ki
T4 construct: made in house; host or cells: SF9 insect cells (baculovirus)
T4 sequence (O60674 812-1132): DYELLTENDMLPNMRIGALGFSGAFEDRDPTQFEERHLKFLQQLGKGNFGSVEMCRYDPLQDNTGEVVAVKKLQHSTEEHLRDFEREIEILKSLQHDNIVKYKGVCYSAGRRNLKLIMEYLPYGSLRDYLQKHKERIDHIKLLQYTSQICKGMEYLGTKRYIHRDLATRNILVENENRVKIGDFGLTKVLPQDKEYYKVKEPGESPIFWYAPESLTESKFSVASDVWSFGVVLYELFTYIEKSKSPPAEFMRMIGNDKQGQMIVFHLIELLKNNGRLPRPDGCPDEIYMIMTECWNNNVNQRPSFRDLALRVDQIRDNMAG

| SMILES | Ki (TYK2) | Ki (JAK1) | Ki (JAK3) | Ki (JAK2) |
| --- | --- | --- | --- | --- |
| OCC(O)c1nc2cnc3[nH]ccc3c2n1C1CCCCC1 (racemic) [Example 853, 1-(1-Cyclohexyl-1,6-dihydro-1,3,5,6-tetraaza-as-indacen-2-yl)-ethane-1,2-diol] | 5.29 nM | 1.98 nM | 20.4 nM | – |
| O=C([C@@H]1CCCN1C1CCC1)N1CCC(n2cnc3cnc4[nH]ccc4c32)CC1 [Example 147, ((S)-1-Cyclobutyl-pyrrolidin-2-yl)-[4-(6H-1,2,3,5,6-tetraaza-as-indacen-1-yl)-piperidin-1-yl]-methanone] | 1530 nM | 65.3 nM | – | 596 nM |
| CC(C)(C)OC(=O)N1CCC(n2c(C#N)nc3cnc4[nH]ccc4c32)CC1 [Example 169, 4-(2-Cyano-6H-1,2,3,5,6-tetraaza-as-indacen-1-yl)-piperidine-1-carboxylic acid tert-butyl ester] | 2930 nM | 292 nM | – | 186 nM |
| N#Cc1cccc(CC(=O)N2CC[C@@H](n3cnc4cnc5[nH]ccc5c43)C2)c1 [Example 189, 3-{2-oxo-2-[(R)-3-(6H-1,2,3,5,6-tetraaza-as-indacen-1-yl)-pyrrolidin-1-yl]-ethyl}-benzonitrile] | 1410 nM | 89.5 nM | – | 362 nM |
| CN1CCN(CC(=O)N2CCC(n3cnc4cnc5[nH]ccc5c43)CC2)CC1 [Example 193, 2-(4-Methyl-piperazin-1-yl)-1-[4-(6H-1,2,3,5,6-tetraaza-as-indacen-1-yl)-piperidin-1-yl]-ethanone] | 3150 nM | 111 nM | – | 697 nM |
| CN(C(=O)Cc1nc2cnc3[nH]ccc3c2n1C1CCNCC1)C1CCCC1 [Example 257, N-Cyclopentyl-N-methyl-2-(1-piperidin-4-yl-1,6-dihydro-1,3,5,6-tetraaza-as-indacen-2-yl)-acetamide] | 3430 nM | 200 nM | 397 nM | – |
| Cc1nc2cnc3[nH]ccc3c2n1C1CCN(C(=O)[C@@H]2CCCN2C)CC1 [Example 285] | 2410 nM | 51.8 nM | – | 402 nM |
| CN(C)CC(=O)N1CC[C@@H](n2cnc3cnc4[nH]ccc4c32)C1 [Example 429, 2-Dimethylamino-1-[(R)-3-(6H-1,3,5,6-tetraaza-as-indacen-1-yl)-pyrrolidin-1-yl]-ethanone] | 2230 nM | 211 nM | – | 894 nM |
| N#Cc1ccc(S(=O)(=O)N2CC[C@@H](n3cnc4cnc5[nH]ccc5c43)C2)cc1 [Example 433, 4-[(R)-3-(6H-1,3,5,6-Tetraaza-as-indacen-1-yl)-pyrrolidine-1-sulfonyl]-benzonitrile] | 293 nM | 22.4 nM | – | 87.6 nM |
| Cc1nc(S(=O)(=O)N2CCC(n3cnc4cnc5[nH]ccc5c43)CC2)cn1C [Example 444, 1-[1-(1,2-Dimethyl-1H-imidazole-4-sulfonyl)-piperidin-4-yl]-1,6-dihydro-1,3,5,6-tetraaza-as-indacene] | 3420 nM | 481 nM | – | 370 nM |
| CC(C)N1CCC(n2nnc3cnc4[nH]ccc4c32)CC1 [Example 548, 1-(1-Isopropyl-piperidin-4-yl)-1,6-dihydro-1,2,3,5,6-pentaaza-as-indacene] | 2790 nM | 223 nM | – | 484 nM |
| CC(C)(C)OC(=O)N1CCCC[C@H]1CN[C@H]1CC[C@H](n2cnc3cnc4[nH]ccc4c32)CC1 [Example 564, trans (S)-2-{[4-(6H-1,3,5,6-Tetraaza-as-indacen-1-yl)-cyclohexylamino]-methyl}-piperidine-1-carboxylic acid tert-butyl ester] | – | 112 nM | 2650 nM | 710 nM |
| CC(C)(C)OC(=O)N1CCC(n2c(NCCO)nc3cnc4[nH]ccc4c32)CC1 [Example 654, 4-[(2-Hydroxy-ethylamino)-6H-1,2,3,5,6-tetraaza-as-indacen-1-yl]-piperidine-1-carboxylic acid tert-butyl ester] | – | 453 nM | 2090 nM | 763 nM |
| COCCNc1nc2cnc3[nH]ccc3c2n1C1CCNCC1 [Example 657, (2-Methoxy-ethyl)-(1-piperidin-4-yl-1,6-dihydro-1,2,3,5,6-tetraaza-as-indacen-2-yl)-amine] | – | 29.1 nM | 668 nM | 1280 nM |
| OC[C@@H](O)c1nc2cnc3[nH]ccc3c2n1C1CCCCC1 [Example 688, (S)-1-(1-Cyclohexyl-1,6-dihydro-1,2,3,5,6-tetraaza-as-indacen-2-yl)-ethane-1,2-diol] | 4.7 nM | 1.77 nM | 16.1 nM | – |
| C[C@H](O)c1nc2cnc3[nH]ccc3c2n1[C@@H]1CCCN(C(=O)Cn2ccnc2)C1 [Example 781, 1-{(R)-3-[2-((S)-1-Hydroxy-ethyl)-6H-1,3,5,6-tetraaza-as-indacen-1-yl]-piperidin-1-yl}-2-imidazol-1-yl-ethanone] | – | 380 nM | 4000 nM | 1490 nM |
| C[C@@H](O)c1nc2cnc3[nH]ccc3c2n1[C@@H]1CCCN(C(=O)CCn2ccnc2)C1 [Example 797, 1-{(R)-3-[2-((R)-1-Hydroxy-ethyl)-6H-1,3,5,6-tetraaza-as-indacen-1-yl]-piperidin-1-yl}-3-imidazol-1-yl-propan-1-one] | – | 159 nM | 1630 nM | 1750 nM |
| C[C@@H](O)c1nc2cnc3[nH]ccc3c2n1[C@@H]1CCCN(C(=O)Cn2ccnc2)C1 [Example 798, 1-{(R)-3-[2-((R)-1-Hydroxy-ethyl)-6H-1,3,5,6-tetraaza-as-indacen-1-yl]-piperidin-1-yl}-2-imidazol-1-yl-ethanone] | – | 69 nM | 897 nM | 2640 nM |
| CC(C)n1cc(CN2CCC(n3c([C@@H](C)O)nc4cnc5[nH]ccc5c43)CC2)cn1 [Example 824, (R)-1-{1-[1-(1-Isopropyl-1H-pyrazol-4-ylmethyl)-piperidin-4-yl]-1,6-dihydro-1,3,5,6-tetraaza-as-indacen-2-yl}-ethanol] | – | 24.5 nM | 600 nM | 1210 nM |
| Cc1nc(CN2CCC(n3c([C@@H](C)O)nc4cnc5[nH]ccc5c43)CC2)n(C)c1C [Example 827, (R)-1-{1-[1-(1,4,5-Trimethyl-1H-imidazol-2-ylmethyl)-piperidin-4-yl]-1,6-dihydro-1,3,5,6-tetraaza-as-indacen-2-yl}-ethanol] | – | 73.9 nM | 1460 nM | 1720 nM |
| Cc1nn(C)cc1CN1CCC(n2c([C@@H](C)O)nc3cnc4[nH]ccc4c32)CC1 [Example 828, (R)-1-{1-[1-(1,3-Dimethyl-1H-pyrazol-4-ylmethyl)-piperidin-4-yl]-1,6-dihydro-1,3,5,6-tetraaza-as-indacen-2-yl}-ethanol] | – | 90.5 nM | 949 nM | 1670 nM |
| CCn1cc(CN2CCC(n3c([C@@H](C)O)nc4cnc5[nH]ccc5c43)CC2)c(C)n1 [Example 829, (R)-1-{1-[1-(1-Ethyl-3-methyl-1H-pyrazol-4-ylmethyl)-piperidin-4-yl]-1,6-dihydro-1,3,5,6-tetraaza-as-indacen-2-yl}-ethanol] | – | 94.3 nM | 1320 nM | 939 nM |
| Cc1ncc(CN2CCC(n3c([C@@H](C)O)nc4cnc5[nH]ccc5c43)CC2)n1C [Example 830, (R)-1-{1-[1-(2,3-Dimethyl-3H-imidazol-4-ylmethyl)-piperidin-4-yl]-1,6-dihydro-1,3,5,6-tetraaza-as-indacen-2-yl}-ethanol] | – | 109 nM | 711 nM | 1730 nM |
| Cc1nn(C)c(C)c1CN1CCC(n2c([C@@H](C)O)nc3cnc4[nH]ccc4c32)CC1 [Example 831, (R)-1-{1-[1-(1,3,5-Trimethyl-1H-pyrazol-4-ylmethyl)-piperidin-4-yl]-1,6-dihydro-1,3,5,6-tetraaza-as-indacen-2-yl}-ethanol] | – | 309 nM | 1000 nM | 2680 nM |
| OC[C@H](O)c1nc2cnc3[nH]ccc3c2n1C1CCCCC1 [Example 858, (R)-1-(1-Cyclohexyl-1,6-dihydro-1,3,5,6-tetraaza-as-indacen-2-yl)-ethane-1,2-diol] | 19.8 nM | 7.77 nM | 52.4 nM | – |
| C[C@@H](O)c1nc2cnc3[nH]ccc3c2n1C1CCN(CC(=O)N2CCOCC2)CC1 [Example 870, 2-{4-[2-((R)-1-Hydroxy-ethyl)-6H-1,3,5,6-tetraaza-as-indacen-1-yl]-piperidin-1-yl}-1-morpholin-4-yl-ethanone] | – | 267 nM | 1370 nM | 1440 nM |
| C[C@@H](O)c1nc2cnc3[nH]ccc3c2n1C1CCN(CC(=O)N2CCCC2)CC1 [Example 872, 2-{4-[2-((R)-1-Hydroxy-ethyl)-6H-1,3,5,6-tetraaza-as-indacen-1-yl]-piperidin-1-yl}-1-pyrrolidin-1-yl-ethanone] | – | 164 nM | 998 nM | 983 nM |
| CCN1CCCC[C@H]1C(=O)N1CCC(n2cnc3cnc4[nH]ccc4c32)CC1 [Example 949, ((S)-1-Ethyl-piperidin-2-yl)-[4-(6H-1,3,5,6-tetraaza-as-indacen-1-yl)-piperidin-1-yl]-methanone] | 1790 nM | 44.1 nM | – | 515 nM |
| O=C([C@@H]1CCCCN1C1COC1)N1CCC(n2cnc3cnc4[nH]ccc4c32)CC1 [Example 951, ((S)-1-Oxetan-3-yl-piperidin-2-yl)-[4-(6H-1,3,5,6-tetraaza-as-indacen-1-yl)-piperidin-1-yl]-methanone] | 2880 nM | 141 nM | – | 480 nM |
